# In US20070196277A1, “Compositions and Methods for the Direct Therapy of Tumors” (priority 2006, published 2007):
# Like-named read-outs stand apart in the source and are kept apart here.
# What was measured:
# [1] = cited from earlier work
# [2] = test system: Walker Carcinosarcoma 256 tumors; settings: cited from earlier work
# [3] = cited from earlier work; remark: listed apart in the source
# [4] = test system: intracerebral T9 gliosarcoma tumors; settings: same dose delivered systemically; cited from earlier work
# [5] = powder, light-protected container, room temperature; cited from earlier work
# [6] = biological target: T1, dihydrouracil dehydrogenase (Homo sapiens, UniProt Q12882); settings: cited from earlier work
# T1 sequence (Q12882 4-1025): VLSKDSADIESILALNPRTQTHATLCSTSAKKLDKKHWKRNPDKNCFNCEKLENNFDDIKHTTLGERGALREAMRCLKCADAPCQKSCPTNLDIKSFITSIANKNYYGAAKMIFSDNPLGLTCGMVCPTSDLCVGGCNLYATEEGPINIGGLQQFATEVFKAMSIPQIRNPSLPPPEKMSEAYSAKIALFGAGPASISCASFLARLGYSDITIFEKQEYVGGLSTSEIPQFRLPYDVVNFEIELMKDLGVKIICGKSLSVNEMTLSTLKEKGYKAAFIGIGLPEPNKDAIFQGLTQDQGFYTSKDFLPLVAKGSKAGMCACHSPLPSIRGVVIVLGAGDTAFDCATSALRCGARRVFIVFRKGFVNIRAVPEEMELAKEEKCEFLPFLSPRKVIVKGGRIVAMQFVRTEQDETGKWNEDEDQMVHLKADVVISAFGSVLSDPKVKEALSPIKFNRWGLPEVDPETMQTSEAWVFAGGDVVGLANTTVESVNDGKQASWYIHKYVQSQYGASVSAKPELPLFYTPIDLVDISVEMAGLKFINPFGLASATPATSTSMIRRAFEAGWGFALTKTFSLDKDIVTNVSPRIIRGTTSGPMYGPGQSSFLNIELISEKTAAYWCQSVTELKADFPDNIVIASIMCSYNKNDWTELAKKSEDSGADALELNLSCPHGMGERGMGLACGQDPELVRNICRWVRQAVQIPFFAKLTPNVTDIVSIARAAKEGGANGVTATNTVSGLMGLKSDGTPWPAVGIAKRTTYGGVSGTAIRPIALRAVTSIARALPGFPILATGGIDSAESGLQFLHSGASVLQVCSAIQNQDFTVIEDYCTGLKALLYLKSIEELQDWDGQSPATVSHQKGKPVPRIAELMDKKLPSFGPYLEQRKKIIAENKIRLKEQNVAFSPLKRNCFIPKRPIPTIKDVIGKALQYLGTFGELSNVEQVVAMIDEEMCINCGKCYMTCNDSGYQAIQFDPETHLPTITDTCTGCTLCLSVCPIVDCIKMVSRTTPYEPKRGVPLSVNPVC
# [7] = cited from earlier work; remark: listed apart in the source
# [8] = test system: marrow cells; settings: in vitro human bone marrow assay; cited from earlier work
# [9] = test system: cat brain
# Excerpt: This conversion is based upon comparison of the cat brain (approximately 20 gms) and human brain (approximately 1350 gms).
# [10] = test system: rat brain
# Excerpt: This conversion is based upon comparison of the mass of the rat brain (approximately 2.5 gms) and human brain (approximately 1350 gms).
# [11] = cited from earlier work; remark: listed apart in the source
smiles,measurement,setting,value
"O=NN(CCCl)C(=O)NCCCl [BCNU, 1,3-bis(2-chloroethyl)-1-nitrosourea]",blood-brain barrier passage,[1]; in vivo,crosses the blood-brain barrier quite effectively
same,total dose excreted as respiratory CO2,[1]; in vivo,about 10%
same,intact BCNU in serum,"[1]; intravenous, after 60 minutes",little intact BCNU
same,antitumor efficacy,"[2]; aqueous vehicle, injected intratumorally","had antitumor efficacy, but far less than the same BCNU dose formulated in ethanol"
same,therapeutic benefit,"[2]; systemic administration, same dose (25 mg/kg)",no therapeutic benefit
same,half life in serum,[3],about 15 minutes
same,cures,[4],no cures
same,increase in life span,[4],no increase in life span
"Oc1ncc(I)c(O)n1 [IUra, 2,4-dihydroxy-5-iodopyrimidine]",storage stability,[5],1 year
same,inhibition of dihydrouracil dehydrogenase,[6],competitive inhibitor
same,apparent Michaelis constant of disappearance from plasma,"[7]; after the infusion, nonlinear",30 mumol/L
same,maximum plasma IUra concentration,[7]; following infusion of 500 to 1200 mg/m^2 of IdUrd,100 mumol/L
same,plasma IUra relative to simultaneous IdUrd plasma concentration,[7]; following infusion of IdUrd,about 10 times
"O=c1[nH]c(=O)n([C@H]2C[C@H](O)[C@@H](CO)O2)cc1I [IdUrd, 5-iodo-2′-deoxyuridine]",cytotoxicity to marrow cells relative to IUra,[8],at least 100 times
CCO [ethanol],maximally tolerated volume with no apparent neurologic deficit,"[9]; cat brain, unpublished data",0.4 ml
same,maximally tolerated volume extrapolated to normal human brain,"[9]; from cat, by brain mass 20 gms vs 1350 gms",27 mL
same,maximally tolerated volume extrapolated to normal human brain,"[10]; from rat, by brain mass 2.5 gms vs 1350 gms",10.8 mL
same,maximally tolerated volume with no apparent neurologic deficit,[10]; rat brain,20 μl
"CC(C)NC(C)Cc1ccc(I)cc1 (stereo not drawn) [iofetamine, N-isopropyl-p-iodoamphetamine]","plasma elimination half-time, first phase",[11]; biphasic elimination,1.6 ± 1.2 h
same,"plasma elimination half-time, second phase",[11]; biphasic elimination,10.9 ± 6.1 h
same,blood-brain barrier passage,[11]; in vivo,crosses the intact blood-brain barrier
